Measured values taken from paper PMC4980083 (JCI insight, 2016).

Assays:
LNCaP95 cells [1] = assay: LNCaP95 proliferation, BrdU incorporation; format: cell-based, human; details: I-EPI-002 2 μM, EPI-002 25 μM, enzalutamide 5 μM; 2 days
LNCaP95 cells [2] = assay: Cell cycle analysis of LNCaP95 cells; format: cell-based, human; details: I-EPI-002 5 μM, EPI-002 25 μM, 48 hours
recombinant AR AF-1 = target: T1, recombinant AR AF-1 (Homo sapiens, UniProt P10275); assay: Cell-free binding to recombinant AR AF-1, competition with cold EPI-002; details: preincubation with 60 μM EPI-002 for 6 hours
T1 sequence (P10275 142-485): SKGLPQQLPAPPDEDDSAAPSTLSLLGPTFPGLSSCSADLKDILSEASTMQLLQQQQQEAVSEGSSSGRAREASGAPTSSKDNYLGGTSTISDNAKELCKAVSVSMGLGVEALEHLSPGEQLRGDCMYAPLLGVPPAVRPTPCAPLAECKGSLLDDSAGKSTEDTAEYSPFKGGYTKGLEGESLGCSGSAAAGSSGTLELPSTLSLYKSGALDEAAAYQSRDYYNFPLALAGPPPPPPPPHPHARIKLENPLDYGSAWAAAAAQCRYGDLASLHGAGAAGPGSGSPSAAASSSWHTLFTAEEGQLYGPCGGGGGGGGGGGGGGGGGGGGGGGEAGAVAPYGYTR

recombinant AR LBD = target: T2, recombinant AR LBD (Homo sapiens, UniProt P10275); assay: Fluorescence polarization competition binding, AR LBD; details: 1 nM fluorescently labeled ligand, AR LBD 25 nM
T2 sequence (P10275 669-900 limits assumed): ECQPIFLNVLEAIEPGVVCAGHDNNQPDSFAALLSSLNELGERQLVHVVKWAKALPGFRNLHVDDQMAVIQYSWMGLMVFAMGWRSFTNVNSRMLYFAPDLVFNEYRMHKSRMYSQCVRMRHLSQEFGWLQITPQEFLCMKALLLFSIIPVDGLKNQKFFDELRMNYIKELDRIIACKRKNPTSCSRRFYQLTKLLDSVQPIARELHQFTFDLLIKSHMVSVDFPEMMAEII

[3] = target: T3, endogenous full-length AR (Homo sapiens, UniProt P10275, T878A); assay: AR transcriptional activity, PSA
T3 sequence (P10275 1-920 T878A): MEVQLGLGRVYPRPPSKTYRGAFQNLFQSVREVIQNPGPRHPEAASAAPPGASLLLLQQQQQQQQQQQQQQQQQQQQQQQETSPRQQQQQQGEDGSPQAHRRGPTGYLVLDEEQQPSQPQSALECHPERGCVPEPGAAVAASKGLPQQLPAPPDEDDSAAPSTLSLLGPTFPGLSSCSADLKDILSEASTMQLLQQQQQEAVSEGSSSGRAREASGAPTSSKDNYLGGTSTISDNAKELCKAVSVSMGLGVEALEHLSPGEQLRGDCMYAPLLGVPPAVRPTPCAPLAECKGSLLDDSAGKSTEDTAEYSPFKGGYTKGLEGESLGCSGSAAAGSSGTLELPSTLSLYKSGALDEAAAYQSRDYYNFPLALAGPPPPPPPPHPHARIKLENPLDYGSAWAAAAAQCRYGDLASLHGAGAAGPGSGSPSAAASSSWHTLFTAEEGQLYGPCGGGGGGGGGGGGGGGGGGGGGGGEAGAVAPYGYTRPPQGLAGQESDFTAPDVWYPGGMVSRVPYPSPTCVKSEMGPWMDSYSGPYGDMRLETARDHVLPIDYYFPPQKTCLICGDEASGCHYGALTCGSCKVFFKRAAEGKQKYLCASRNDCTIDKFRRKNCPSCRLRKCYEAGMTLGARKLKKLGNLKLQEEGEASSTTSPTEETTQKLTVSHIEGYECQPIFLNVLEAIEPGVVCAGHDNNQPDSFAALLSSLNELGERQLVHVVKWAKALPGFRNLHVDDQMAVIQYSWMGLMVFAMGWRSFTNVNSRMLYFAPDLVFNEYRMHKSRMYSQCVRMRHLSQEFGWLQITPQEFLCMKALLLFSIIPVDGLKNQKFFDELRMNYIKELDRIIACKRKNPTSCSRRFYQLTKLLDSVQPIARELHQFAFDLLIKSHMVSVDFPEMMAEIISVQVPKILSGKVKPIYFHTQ

LNCaP95 cells [4] = assay: Western blot of cell cycle G1/S-related proteins in LNCaP95 cells; format: cell-based, human; details: enzalutamide 5 μM, EPI-002 25 μM, I-EPI-002 5 μM; 48 hours

SMILES | effect on proliferation of LNCaP95 cells (LNCaP95 cells [1]) | decrease of S phase cells (LNCaP95 cells [2]) | displacement of ^123I-EPI-002 binding to AF-1 (recombinant AR AF-1) | competition with fluoromone for binding to AR LBD (recombinant AR LBD) | inhibition of AR transcriptional activity ([3]; 25 μM, R1881 1 nM) | inhibition of AR transcriptional activity with increasing concentrations of androgen ([3]; increasing R1881, enzalutamide 5 μM, I-EPI-002 5 μM, EPI-002 25 μM) | expression of UBE2C, cyclinD3 and cyclin-dependent kinases (CDKs) (LNCaP95 cells [4]) | protein expression of the CDK inhibitor p27kip1 (LNCaP95 cells [4])
CC(C)(c1ccc(OC[C@H](O)CO)cc1)c1ccc(OC[C@H](O)CCl)cc1 [EPI-002, reference compound] | decreased proliferation | ≥ 2 fold | displaced binding | did not prevent ligand-binding | ~75% | maintained effective inhibition | – | –
CNC(=O)c1ccc(N2C(=S)N(c3ccc(C#N)c(C(F)(F)F)c3)C(=O)C2(C)C)cc1F [enzalutamide] | – | – | – | – | – | – | had no effect | had no effect
